Laboratory results reported in the NIST ThermoML archive (doi:10.1016/j.jct.2011.02.021).
± gives the expanded uncertainty stated by the source.

Assay: molar enthalpy of vaporization or sublimation
Conditions: 298.15 K; Crystal; drop microcalorimetry

Row | Structure (SMILES) | molar enthalpy
1 | Cc1cc(=O)cc(C)o1 [2,6-dimethyl-γ-pyrone] | 20.7 ± 0.717 kcal/mol
2 | CCc1occc(=O)c1O [2-ethyl-3-hydroxy-4H-pyran-4-one] | 21.8 ± 0.956 kcal/mol
